According to patent US11472766B2, “Lipid nanoparticle composition” (Suzhou Abogen Biosciences Co., Ltd., priority 2020, dated 2022):

How the values were obtained:
[1] = Encapsulation efficiency of lipid nanoparticles (Quant-it Ribogreen RNA quantification assay); assay type: physicochemical; conditions: LNP encapsulating hEPO mRNA
Outline: (§1)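 LNPs of cationic lipid:DSPC:cholesterol:PEG-lipid (50:10:38.5:1.5 molar) with mRNA in 10–50 mM citrate pH 4, microfluidic mixing at 1:3 ethanol:aqueous, lipid:mRNA weight ratio ~10:1–30:1, dialysed into DPBS and 0.2 μm filtered. Size by DLS, 173° backscatter; encapsulation efficiency by Ribogreen assay.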

[2] = Lipid nanoparticle size by dynamic light scattering (Malvern Zetasizer Nano ZS); assay type: physicochemical; conditions: LNP: cationic lipid/DSPC/cholesterol/PEG-lipid 50:10:38.5:1.5, hEPO mRNA
Outline: as §1

[3] = system: human erythropoietin (hEPO) mRNA; test: Animal study: hEPO expression after tail vein injection of LNPs encapsulating hEPO mRNA (serum ELISA); assay type: in vivo; conditions: hEPO level, female ICR mice, 0.5 mg/kg, 6 hours post administration; for Expression at 6 h (μg/ml): class symbols, Table 3
Outline: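 Female ICR mice (6-8 weeks) received LNPs carrying hEPO mRNA by tail vein injection at 0.5 mg/kg, with MC3 LNPs dosed the same way as positive control. Blood was drawn at set times (e.g., 6 h) and serum separated. hEPO was quantified by ELISA and reported as μg/ml.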

[4] = Apparent pKa of LNP formulations (TNS fluorescence assay); conditions: LNP cationic lipid/DSPC/cholesterol/DMG-PEG 50/10/38.5/1.5 mol %
Procedure: The apparent pKa of each formulation was determined using an assay based on fluorescence of 2-(p-toluidino)-6-napthalene sulfonic acid (TNS). LNP formulations comprising of cationic lipid/DSPC/cholesterol/DMG-PEG (50/10/38.5/1.5 mol %) in PBS were prepared as described above. TNS was prepared as a 300 uM stock solution in distilled water. LNP formulations were diluted to 0.1 mg/ml total lipid in 3 mL of buffered solutions containing 50 mM sodium citrate, 50 mM sodium phosphate, 50 mM sodium borate, and 30 mM sodium chloride where the pH ranged from 3 to 9. An aliquot of the TNS solution was added to give a final concentration of 0.1 mg/ml and following vortex mixing fluorescence intensity was measured at room temperature in a Molecular Devices Spectramax iD3 spectrometer using excitation and mission wavelengths of 325 nm and 435 nm. A sigmoidal best fit analysis was applied to the fluorescence data and the pKa value was measured as the pH giving rise to half-maximal fluorescent intensity.

Encapsulation Efficiency ([1]; Table 3) [%]	polydispersity ([2]; Table 3)	size nm ([2]; Table 3) [nm]	Apparant Pka ([4]; Table 3)	Encapsulation Efficiency ([1]; Table 2) [%]	polydispersity ([2]; Table 2)	size nm ([2]; Table 2) [nm]	Apparant Pka ([4]; Table 2)	Compound	Expression at 6 h (μg/ml) [3]	Expression at 6 h ([3]; Table 2) [µg/mL]
83.4	0.075	138.7	6.981	–	–	–	–	CCCCCCC(CCCCCC)CNC(=O)CCCCCN(CCCCCC(=O)OCC(CCCCCC)CCCCCC)CCN(CCO)C1CCCC1 [Compound 140]	A (≥2)	–
91.2	0.04	90	6.728	–	–	–	–	CCCCCCCCC(CCCCCC)CC(=O)NCCCCCN(CCCCCNC(=O)CC(CCCCCC)CCCCCCCC)CCN(CCO)C1CC1 (stereo not drawn) [Compound 113]	A (≥2)	–
96.8	0.095	89.96	7.206	–	–	–	–	CCCCCCCCC(CCCCCC)COC(=O)CCCCCN(CCCCCC(=O)OCC(CCCCCC)CCCCCCCC)C(=O)CCCN(CCO)C1CCC1 (stereo not drawn) [Compound 13]	C (≥0.1 and <1)	–
97.2	0.21	66.89	7.41	–	–	–	–	CCCCCCCCC(CCCCCC)COC(=O)CCCCCN(CCCCCC(=O)OCC(CCCCCC)CCCCCCCC)CCN(CCO)C1COC1 (stereo not drawn) [Compound 88]	D (<0.1)	–
88.4	0.068	104.8	6.836	–	–	–	–	CCCCCCC(CCCCCC)CC(=O)NCCCCCN(CCCCCOC(=O)CC(CCCCCC)CCCCCC)CCN(CCO)C1CCCC1 [Compound 154]	A (≥2)	–
91.80	0.065	72.52	6.347	–	–	–	–	CCCCCCC(CCCCCC)COC(=O)CCCCCN(CCCCCC(=O)OCC(CCCCCC)CCCCCC)CCN(CCO)C1CCC1 [Compound 48]	A (≥2)	–
93.2	0.032	58.61	6.836	–	–	–	–	CCCCCCCCC(CCCCCCCC)CC(=O)NCCCCCN(CCCCCOC(=O)CC(CCCCCCCC)CCCCCCCC)CCN(CCO)C1CCCC1 [Compound 143]	A (≥2)	–
97.5	0.054	64.04	5.93	–	–	–	–	CCCCCCCCCCC(CCCCCC)COC(=O)CCCN(CCCC(=O)OCC(CCCCCC)CCCCCCCCCC)CCN(CCO)C1CCC1 (stereo not drawn) [Compound 41]	C (≥0.1 and <1)	–
98.2	0.117	65.12	6.732	–	–	–	–	CCCCCCCCC(CCCCCC)CC(=O)NCCCCCN(CCCCCNC(=O)CC(CCCCCC)CCCCCCCC)CCN(CCO)C1CCCCC1 (stereo not drawn) [Compound 115]	A (≥2)	–
36.2	0.156	244.8	6.438	–	–	–	–	CCCCC/C=C\CCCOC(=O)CCCCCN(CCCCCC(=O)OCCC/C=C\CCCCC)CCN(CCO)C1CCC1 [Compound 62]	D (<0.1)	–
89.3	0.025	87.92	6.695	–	–	–	–	CCCCCCCCC(CCCCCC)CC(=O)NCCCCCN(CCCCCNC(=O)CC(CCCCCC)CCCCCCCC)CCN(CCO)C1CCCC1 (stereo not drawn) [Compound 114]	A (≥2)	–
85.5	0.059	107.4	6.621	–	–	–	–	CCCCCCC(CCCCCC)CC(=O)NCCCCCN(CCCCCOC(=O)CC(CCCCCC)CCCCCC)CCN(CCO)C1CC1 [Compound 153]	A (≥2)	–
94.6	0.052	66.27	7.496	–	–	–	–	CCCCCCCCCCCOC(=O)CCCCCN(CCCCCC(=O)NCC(CCCCCCCC)CCCCCCCC)CCN(CCO)C1CCC1 [Compound 146]	B (≥1 and <2)	–
97.3	0.067	72	6.6	–	–	–	–	CCCCCCCCC(CCCCCC)COC(=O)CCCCCN(CCCCCC(=O)OCC(CCCCCC)CCCCCCCC)CCN(CCO)C1CCOC1 (stereo not drawn) [Compound 90]	B (≥1 and <2)	–
94.3	0.039	77.76	5.941	–	–	–	–	CCCCCCCCC(CCCCCC)COC(=O)CCCCCN(CCCCCC(=O)OCC(CCCCCC)CCCCCCCC)CCN(CC(C)O)C1CCC1 (stereo not drawn) [Compound 32]	C (≥0.1 and <1)	–
93.7	0.065	82.91	6.46	–	–	–	–	CCCCC(CCCC)CCCCCC(=O)OCCCCCN(CCCCCOC(=O)CCCCCC(CCCC)CCCC)CCN(CCO)C1CCC1 [Compound 85]	B (≥1 and <2)	–
93.3	0.042	92.4	6.698	–	–	–	–	CCCCCCCCC(CCCCCC)CC(=O)NCCCCCN(CCCCCNC(=O)CC(CCCCCC)CCCCCCCC)CCN(CCO)C1CCC1 (stereo not drawn) [Compound 105]	A (≥2)	–
89.8	0.313	51.17	9.21	–	–	–	–	CCCCCCCCC(CCCCCC)COC(=O)CCCCCC(CCCCCC(=O)OCC(CCCCCC)CCCCCCCC)CN(CCO)C1CCC1 (stereo not drawn) [Compound 15]	D (<0.1)	–
93.5	0.109	113.9	6.712	–	–	–	–	CCCCCCC(CCCCCC)COC(=O)CCCCCN(CCCCCC(=O)OCC(CCCCCC)CCCCCC)CCN(CCC)C1CCC(O)CC1 (stereo not drawn) [Compound 72]	A (≥2)	–
87.9	0.033	105.50	6.442	–	–	–	–	CCCCCCCCC(CCCCCC)CNC(=O)CCCCCN(CCCCCC(=O)NCC(CCCCCC)CCCCCCCC)CCN(CCO)C1CC(O)C1 (stereo not drawn) [Compound 134]	A (≥2)	–
94.5	0.091	62.2	5.315	–	–	–	–	CCCCCCCCC(CCCCCC)COC(=O)CCCCCN(CCCCCC(=O)OCC(CCCCCC)CCCCCCCC)CCN(CC(O)CCCC)C1CCC1 (stereo not drawn) [Compound 33]	D (<0.1)	–
91.2	0.037	65.71	6.515	–	–	–	–	CCCCCCCCC(CCCCCCCC)COC(=O)CCCCCN(CCCCCC(=O)OCC(CCCCCCCC)CCCCCCCC)CCN(CCO)C1CCOC1 (stereo not drawn) [Compound 87]	A (≥2)	–
88.2	0.026	92.17	6.686	–	–	–	–	CCCCCCC(CCCCCC)CC(=O)NCCCCCN(CCCCCOC(=O)CC(CCCCCC)CCCCCC)CCN(CCO)C1CCCCC1 [Compound 152]	A (≥2)	–
92.1	0.086	68.6	6.329	–	–	–	–	CCCCCCCCC(CCCCCC)COC(=O)CCCCCN(CCCCCC(=O)OCC(CCCCCC)CCCCCCCC)CCN(CCC)C1CC(O)C1 (stereo not drawn) [Compound 60]	B (≥1 and <2)	–
93.8	–	76.56	6.32	–	–	–	–	CCCCCCC(CCCCCC)CCCCCC(=O)OCCCCCN(CCCCCOC(=O)CCCCCC(CCCCCC)CCCCCC)CCN(CCO)C1CCC1 [Compound 86]	C (≥0.1 and <1)	–
93.1	0.04	61.5	6.634	–	–	–	–	CCCCCCCCC(CCCCCCCC)CC(=O)NCCCCCN(CCCCCOC(=O)CC(CCCCCCCC)CCCCCCCC)CCN(CCO)C1CCCCCC1 [Compound 145]	A (≥2)	–
90.06	0.038	69.81	6.352	–	–	–	–	CCCCCCC(CCCCCC)COC(=O)CCCCCN(CCCCCC(=O)OCC(CCCCCC)CCCCCC)CCN(CCO)C1CCC1 [Compound 77]	A (≥2)	–
94.1	0.075	65.13	6.249	–	–	–	–	CCCCCCCC(CCCCCCC)COC(=O)CCCCCN(CCCCCC(=O)OCC(CCCCCCC)CCCCCCC)CCN(CCO)C1CCC1 [Compound 49]	A (≥2)	–
–	–	–	–	96.6	0.109	60.5	5.88	CCCCCCCCC(CCCCCC)COC(=O)CCCCCN(CCCCCC(=O)OCC(CCCCCC)CCCCCCCC)CCN(CCO)C1CCCCCCC1 (stereo not drawn) [Compound 6]	–	0.00
